Key:
Experiment in all cases: relative viability (nuclei count vs DMSO), 5 days (fraction); higher = more cells survive
[1] = compound: CC1=CN2C(=O)C=C(N=C2C(=C1)C(C)NC3=CC=CC=C3)N4CCOCC4 [TGX 221] + CC1(C)CCC(c2ccc(Cl)cc2)=C(CN2CCN(c3ccc(C(=O)NS(=O)(=O)c4ccc(N[C@H](CCN5CCOCC5)CSc5ccccc5)c(S(=O)(=O)C(F)(F)F)c4)cc3)CC2)C1 [Navitoclax] (partner 0.5 µM)
Summary of the method: (§1)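 Relative viability is defined as nuclei in treated wells over nuclei in vehicle wells. Duplicate plates were run and medians reported. Lung cancer cell lines in 1536-well plates were dosed by pin tool one day after seeding, with one drug or with a fixed anchor-drug dose plus five library-drug doses (not always all listed) in √10 steps, and nuclei were counted after 5 days.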

[2] = compound: O=C(CCCCCCNC(=O)c1cnc(N(c2ccccc2)c2ccccc2)nc1)NO [Ricolinostat] + O=C(CCCCCCC(=O)Nc1ccccc1)NO [Vorinostat] (partner 1 µM)
Summary of the method: as §1

[3] = compound: O=C(CCCCCCNC(=O)c1cnc(N(c2ccccc2)c2ccccc2)nc1)NO [Ricolinostat] + NC(=O)Nc1cc(-c2cccc(F)c2)sc1C(=O)N[C@H]1CCCNC1 [AZD7762] (partner 0.2 µM)
Summary of the method: as §1

[4] = compound: O=C(CCCCCCNC(=O)c1cnc(N(c2ccccc2)c2ccccc2)nc1)NO [Ricolinostat] + Nc1ncn([C@H]2C[C@H](O)[C@@H](CO)O2)c(=O)n1 [Decitabine] (partner 2 µM)
Summary of the method: as §1

Row | Cell Line | relative viability ([1]; first compound 0.08 µM) | relative viability ([1]; first compound 0.253 µM) | relative viability ([1]; first compound 0.8 µM) | relative viability ([1]; first compound 2.53 µM) | relative viability ([1]; first compound 8 µM) | relative viability ([2]; first compound 0.253 µM) | relative viability ([2]; first compound 0.8 µM) | relative viability ([2]; first compound 2.53 µM) | relative viability ([3]; first compound 0.08 µM) | relative viability ([3]; first compound 0.253 µM) | relative viability ([3]; first compound 0.8 µM) | relative viability ([3]; first compound 2.53 µM) | relative viability ([4]; first compound 0.08 µM) | relative viability ([4]; first compound 0.253 µM) | relative viability ([4]; first compound 0.8 µM) | relative viability ([4]; first compound 2.53 µM) | relative viability ([2]; first compound 0.08 µM)
1 | IA-LM | 0.722 | 0.707 | 1.02 | 0.849 | 1.02 | 0.96 | 0.8 | 0.647 | – | – | – | – | – | – | – | – | –
2 | LC-2-ad | 0.514 | – | 0.424 | 0.348 | 0.361 | 0.67 | 0.64 | 0.458 | 0.842 | 0.883 | 0.82 | 0.745 | 0.776 | 0.784 | 0.842 | 0.835 | 0.68
3 | LCLC-97TM1 | 0.389 | 0.264 | 0.42 | 0.464 | 0.481 | 0.556 | 0.628 | 0.333 | – | 0.378 | 0.265 | 0.34 | 0.225 | 0.185 | 0.214 | 0.227 | 0.487
4 | LCLC-103H | – | – | – | – | – | 0.738 | 0.639 | 0.522 | 0.694 | 0.754 | 0.749 | 0.626 | 0.726 | 0.745 | 0.76 | 0.739 | 0.662
5 | LK-2 | 0.98 | 0.84 | 0.81 | 0.996 | 0.948 | 0.311 | 0.261 | 0.192 | 0.254 | 0.375 | 0.38 | 0.348 | 0.268 | 0.364 | 0.24 | 0.212 | 0.393
6 | LOU-NH91 | 0.705 | 0.647 | 0.707 | 0.681 | 0.544 | 0.955 | 0.782 | 0.755 | – | 0.788 | 0.796 | 0.739 | – | 0.794 | 0.826 | 0.887 | –
7 | LU99A | 0.647 | 0.756 | 0.824 | 0.799 | 0.811 | 0.473 | 0.462 | 0.326 | 0.324 | 0.378 | 0.253 | 0.159 | 0.883 | 0.899 | 0.722 | 0.748 | 0.513
8 | LXF-289 | 0.966 | 0.967 | 0.929 | 0.882 | 0.945 | 0.723 | 0.681 | 0.483 | 1.07 | 1.07 | 1.11 | 1.06 | 0.407 | 0.366 | 0.384 | 0.347 | 0.697
9 | NCI-H358 | – | – | – | – | – | 0.633 | 0.482 | 0.34 | – | 0.519 | 0.414 | 0.312 | 0.247 | 0.212 | 0.214 | 0.179 | 0.599
10 | NCI-H520 | 1.24 | 0.944 | 1.03 | 0.756 | 0.648 | 0.659 | 0.629 | 0.532 | – | – | – | – | – | 0.521 | 0.513 | 0.426 | –
11 | NCI-H522 | – | – | – | – | – | 0.919 | 0.855 | 0.628 | 0.877 | 0.838 | 0.853 | 0.822 | 0.641 | 0.702 | 0.714 | 0.642 | 0.836
12 | NCI-H650 | – | – | – | – | – | 0.434 | 0.367 | 0.296 | 0.706 | 0.993 | 0.849 | 0.579 | 0.312 | 0.301 | 0.315 | 0.306 | 0.355
13 | NCI-H661 | – | – | – | – | – | 0.716 | 0.722 | 0.558 | – | – | – | – | 0.552 | 0.511 | 0.581 | 0.489 | 0.68
14 | NCI-H1299 | 1.01 | 1.03 | 1.04 | 1.07 | 0.985 | – | – | – | – | – | – | – | – | – | – | – | –
15 | NCI-H1648 | – | – | – | – | – | 0.483 | 0.458 | 0.254 | – | 0.651 | 0.524 | 0.494 | – | 0.506 | 0.486 | 0.316 | –
16 | NCI-H1650 | 1.23 | 1.14 | 1.27 | 1.04 | 0.456 | 0.535 | 0.485 | 0.372 | – | – | – | – | 0.489 | 0.346 | 0.358 | 0.311 | 0.544
17 | NCI-H1703 | 1.05 | 0.822 | 0.969 | 0.97 | 0.633 | – | – | – | – | 0.132 | – | 0.11 | – | – | – | – | –
18 | NCI-H2009 | 1.13 | 1.16 | 1.17 | 1.02 | 0.927 | 0.68 | 0.711 | 0.53 | – | – | – | – | 0.376 | 0.353 | 0.35 | 0.373 | 0.614
19 | NCI-H2023 | 0.987 | 0.965 | 0.988 | 0.925 | 0.758 | 0.544 | 0.47 | 0.369 | – | – | – | – | 0.234 | 0.233 | 0.227 | 0.204 | 0.511
20 | NCI-H2228 | 0.856 | 0.949 | 0.609 | 0.931 | 0.644 | 0.647 | 0.605 | 0.64 | – | – | – | – | – | – | – | – | 0.896
21 | NCI-H2342 | – | – | – | – | – | 0.694 | 0.757 | 0.745 | 0.413 | 0.443 | 0.531 | 0.451 | 0.628 | 0.719 | 0.784 | 0.718 | 0.693
22 | SK-LU-1 | 0.392 | 0.84 | 0.726 | 0.786 | 0.772 | 0.613 | 0.731 | 0.607 | – | – | – | – | 0.607 | 0.604 | 0.638 | 0.524 | 0.669
23 | SK-MES-1 | 1.17 | 1.05 | 1.13 | 1.05 | 0.996 | 1.03 | 1.07 | 0.932 | – | – | – | – | 0.402 | 0.384 | 0.344 | 0.375 | 0.912
24 | SW 900 | – | – | – | – | – | 0.61 | 0.483 | 0.327 | 0.632 | 0.534 | 0.513 | 0.369 | 0.517 | 0.433 | 0.368 | 0.401 | 0.446
25 | SW 1573 | 0.814 | 0.811 | 0.926 | 0.821 | 0.753 | 0.667 | 0.751 | 0.49 | – | – | – | – | 0.487 | 0.496 | 0.546 | 0.416 | 0.554
26 | UMC-11 | 0.352 | 0.304 | 0.337 | 0.283 | 0.259 | 0.377 | 0.265 | 0.187 | – | – | – | – | 0.551 | 0.543 | 0.561 | 0.417 | 0.389
